One assay deals with HSC-T6 cells. The experiment in a line: Measurement of intracellular ROS (DCFH-DA, flow cytometry and confocal microscopy). It is filed as cell-based, mice. The note with it: HSC-T6, TGF-β 2 ng/ml; FIGS. 2-4. How it is done: For visualization and analysis of intracellular ROS, the oxidation-sensitive probe DCFH-DA was used, as previously described. To analyze the net intracellular generation of ROS by flow cytometry, cells were detached by trypsinization after incubation in the absence or presence of the different factors. The cellular fluorescence intensity was measured after 30 min incubation with […] DCFH-DA, by using the same flow cytometer described above. Propidium iodide (0.005%) was used to detect dead cells. For each analysis, 10,000 events were recorded. For confocal microscopy analysis, after incubation of cells in the absence or presence of the different factors, they were washed twice with PBS and the cellular fluorescence intensity was visualized after 30 min of incubation with […] DCFH-DA by using the same confocal microscopy described above. The analysis results were illustrated in FIGS. 2-4. […]
The influences of hepacin on mice-derived once-activated HSC-T6 line were studied. […] The luciferase activity was determined with or without 10, 5, 1 nM of hepacin in the absence or presence of 2 ng/ml of transforming growth factor TGF-β. The effects of hepacin on generation of intracellular reactive oxygen species (ROS) in HSC-T6 were also analyzed.
A general note: A flow cytometer gives signals particle by particle.

Another assay concerns TGF-β. The experiment in a line: TGF-β mediated inflammation and fibrosis, cell model (HSC-T6) and animal model (mouse liver fibrosis). The conditions noted are these: overall conclusion from the tests of Example 2 (FIGS. 5-10). On the procedure:
The EMSA used the following oligonucleotides: consensus Sp1 (f), 5′-GTTGCGGGGCGGGGCCGAGTG-3′; consensus Sp1 (r), 3′-AACGCCCCGCCCCGGCTCACG-5′. 30 pmol of each of the forward and reverse oligonucleotides placed in a volume of 23 μl of 1× Klenow (DNA polymerase) buffer were heated at 94° C. for 2 min and annealed at room temperature for 30 min. The annealed double-stranded oligonucleotides were end-labeled by a fill-in reaction using DNA polymerase (Klenow)(Promega). One unit of the DNA polymerase (Klenow) and […] of (−32P)dCTP (PerkinElmer Life Sciences) were added into the annealed oligonucleotides and the mixture was incubated at 30° C. for 15 min. […] Samples were analyzed on a 4% polyacrylamide gel (acrylamide/bisacrylamide 29:1 in 0.5×Tris borate-EDTA buffer) at 10 V/cm for 2.5 h. The gel was dried and analyzed by autoradiography. […]
Liver samples (0.5 g) were lysed (Reporter lysis buffer, Promega, Madison, Wis., USA), the protein were boiled in Laemmli's sample buffer and samples were subjected to 10% SDSPAGE followed by western immunoblotting. […] Immunoreactive bands were detected using the enhanced chemiluminescence (ECL) reagent using SuperSignal West Pico Chemiluminescent Substrate (Pierce, Rockford, Ill., USA). The light emitted by the chemical reaction was detected by exposure to Hyperfilm ECL (Amersham Biosciences, Uppsala, Sweden). […]

For `CC(C)=CCOc1ccc(C2=C(CC(C)C)C(=O)NC2=O)cc1` [Compound 2, 3-Isobutyl-4-[4-(3-methyl-2-butenyloxy)phenyl]-1H-pyrrole-2,5-dione], in the assay with HSC-T6 cells, the ROS scavenging result is recorded as “ROS Scavenger”. In addition, in the assay with TGF-β, the “TGF-β mediated inflammation and fibrosis” value was “Down Regulated TGF-β Mediated Inflammation and Fibrosis”.
